Patent publication EP0409227A2, “Pyrimidine nucleosides, their preparation and pharmaceutical preparations” (MATTHES, Eckart, Dr., priority 1989, dated 1991)
Where two headings read alike, the source gives them in different places.

Assays:
MT4 Zellen = experiment: Cytotoxicity: inhibition of proliferation of MT4 cells; format: cell-based
Experimental: Unter dem Aspekt einer möglichen Anwendung der Verbindungen am Menschen wurden ihre antiproliferativen Wirkungen an menschlichen Zellkulturen wie früher beschrieben getestet (E. Matthes et al. Biochem.Biophys.Res.Commun. 153, 825 (1988)). Dabei zeigte sich, daß z.B. 2′,3′-Didesoxy-3-fluor-5-methylcytidin gegenüber der T-Zellinie MT4 eine CD₅₀ von 190 µM aufweist. In einem weiteren Test, in dem eine mögliche Wachstumshemmung koloniebildender Zellen des Knochenmarks der Maus (CFU-GM) untersucht wurde (E. Matthes et al. Biochem.Biophys.Res.Commun. 165, 488 (1989), erwies sich diese Verbindung ebenfalls als kaum proliferationshemmend (CD₅₀ > 500 µM). Die Wirkung weiterer Verbindungen auf die Proliferation von MT4-Zellen ist in Tabelle 3 zusammengefaßt. Tabelle 3

DNA-Polymerase-beta = target: T1, DNA-Polymerase-beta (Homo sapiens, UniProt P06746); experiment: Effect of modified nucleoside triphosphates on cellular DNA polymerase beta; format: biochemical; settings: read-out: ID₅₀ (µM) DNA-Polymerase- beta
T1 construct: Die Isolierung der Enzyme und deren Aktivitätsbestimmung erfolgte entsprechend der Methode von Matthes et al; from tissue
Excerpt: (§1) Um zu prüfen, inwieweit die beschriebene Wirkung auf die HBV-Polymerase selektiv ist, d.h., die zellulären DNA-Polymerasen von einer Hemmung durch die erfindungsgemäßen Nucleosidtriphosphate ausgenommen sind, wurden die zellulären DNA-Polymerasen-alpha und -beta in die Untersuchungen einbezogen. Die Isolierung der Enzyme und deren Aktivitätsbestimmung erfolgte entsprechend der Methode von Matthes et al. (Biomed.Biochim.Acta 44, K63-K73 (1985)). Die Ergebnisse der Tabelle 2 zeigen, daß die für die Replikation der zellulären DNA zuständige DNA-Polymerase alpha weitgehend unbeeinflußt bleibt. Eine 50 %ige Hemmung dieses Enzyms wird mit Ausnahme auch bei Hemmstoffkonzentrationen >100 µM noch nicht erreicht, so daß die DNA-Polymerase-alpha diesen Verbindungen gegenüber als nahezu resistent anzusehen ist. Für die DNA-Polymerase-beta, die als Reparaturenzym zellulärer DNA-Schäden angesehen wird, liegen die ID₅₀- Werte zwischen 1 und >200 µM. Damit besitzt die beschriebene Verbindung eine hohe Wirkungsspezifität. Tabelle 2

HBV-Polymerase = target: T2, HBV-Polymerase (Hepatitis B virus genotype D subtype ayw, UniProt P03156); experiment: Inhibition of HBV polymerase activity by nucleoside triphosphate analogues (method of Kaplan et al.); format: biochemical; settings: 50 % inhibition of HBV polymerase activity; 3 h incubation at 37 °C; read-out: ID₅₀
T2 construct: Es wurde zunächst die Hemmbarkeit der HBV-assoziierten Polymerase; host or cells: virus-associated endogenous polymerase
Excerpt: Das Hepatitis B Virus (HBV) besitzt eine zirkuläre, partiell doppelsträngige DNA, welche nach Infektion einer Leberzelle durch eine viruseigene Polymerase repliziert wird. Dieser Vorgang setzt jedoch die Synthese einer RNA durch eine zelluläre RNA-Polymerase voraus. Nur diese RNA-Matrize - im Zusammenhang mit der Replikation auch als Prägenom bezeichnet - kann von der HBV-Polymerase für die Synthese zunächst eines RNA-DNA Hybrids und dann der doppelsträngigen DNA benutzt werden. Damit verfügt die HBV-Polymerase über eine enzymatische Aktivität, die der einer reversen Transcriptase ähnelt (Will et al., J.Virology 61, 904 (1987)). Es wurde zunächst die Hemmbarkeit der HBV-assoziierten Polymerase durch die 5′-Triphosphate der erfindungsgemäßen Verbindungen untersucht. Dazu wurde die von Kaplan et al. (J.Virology 12, 995 (1973)) angegebene Methode zur Bestimmung der HBV-Polymerase benutzt, wobei die zu testenden Triphosphate den Ansätzen in verschiedenen Konzentrationen zugesetzt wurden. Die Hemmung der Enzymreaktion wurde nach 3-stündiger Inkubation bei 37 °C durch Vergleich mit einem Kontrollwert ermittelt und daraus die Konzentration der zugesetzten Analoga bestimmt, die zu einer 50 %igen Hemmung der HBV-Polymerase-Aktivität führt (ID₅₀). Tabelle 1 zeigt die Ergebnisse, wobei insbesondere 2′,3′-Didesoxy-3′-fluor-5-methylcytidin durch einen Wert ID₅₀ von 0,03 µM herausragt und damit zu den stärksten bisher bekannten Hemmstoffen der HBV-Polymerase zu rechnen ist. Tabelle 1

DNA-Polymerase-alpha = target: T3, DNA-Polymerase-alpha (Homo sapiens, UniProt P09884); experiment: Effect of modified nucleoside triphosphates on cellular DNA polymerase alpha; format: biochemical; settings: read-out: ID₅₀ (µM) DNA-Polymerase- alpha
T3 construct: Die Isolierung der Enzyme und deren Aktivitätsbestimmung erfolgte entsprechend der Methode von Matthes et al; from tissue
T3 sequence (P09884 1-1462): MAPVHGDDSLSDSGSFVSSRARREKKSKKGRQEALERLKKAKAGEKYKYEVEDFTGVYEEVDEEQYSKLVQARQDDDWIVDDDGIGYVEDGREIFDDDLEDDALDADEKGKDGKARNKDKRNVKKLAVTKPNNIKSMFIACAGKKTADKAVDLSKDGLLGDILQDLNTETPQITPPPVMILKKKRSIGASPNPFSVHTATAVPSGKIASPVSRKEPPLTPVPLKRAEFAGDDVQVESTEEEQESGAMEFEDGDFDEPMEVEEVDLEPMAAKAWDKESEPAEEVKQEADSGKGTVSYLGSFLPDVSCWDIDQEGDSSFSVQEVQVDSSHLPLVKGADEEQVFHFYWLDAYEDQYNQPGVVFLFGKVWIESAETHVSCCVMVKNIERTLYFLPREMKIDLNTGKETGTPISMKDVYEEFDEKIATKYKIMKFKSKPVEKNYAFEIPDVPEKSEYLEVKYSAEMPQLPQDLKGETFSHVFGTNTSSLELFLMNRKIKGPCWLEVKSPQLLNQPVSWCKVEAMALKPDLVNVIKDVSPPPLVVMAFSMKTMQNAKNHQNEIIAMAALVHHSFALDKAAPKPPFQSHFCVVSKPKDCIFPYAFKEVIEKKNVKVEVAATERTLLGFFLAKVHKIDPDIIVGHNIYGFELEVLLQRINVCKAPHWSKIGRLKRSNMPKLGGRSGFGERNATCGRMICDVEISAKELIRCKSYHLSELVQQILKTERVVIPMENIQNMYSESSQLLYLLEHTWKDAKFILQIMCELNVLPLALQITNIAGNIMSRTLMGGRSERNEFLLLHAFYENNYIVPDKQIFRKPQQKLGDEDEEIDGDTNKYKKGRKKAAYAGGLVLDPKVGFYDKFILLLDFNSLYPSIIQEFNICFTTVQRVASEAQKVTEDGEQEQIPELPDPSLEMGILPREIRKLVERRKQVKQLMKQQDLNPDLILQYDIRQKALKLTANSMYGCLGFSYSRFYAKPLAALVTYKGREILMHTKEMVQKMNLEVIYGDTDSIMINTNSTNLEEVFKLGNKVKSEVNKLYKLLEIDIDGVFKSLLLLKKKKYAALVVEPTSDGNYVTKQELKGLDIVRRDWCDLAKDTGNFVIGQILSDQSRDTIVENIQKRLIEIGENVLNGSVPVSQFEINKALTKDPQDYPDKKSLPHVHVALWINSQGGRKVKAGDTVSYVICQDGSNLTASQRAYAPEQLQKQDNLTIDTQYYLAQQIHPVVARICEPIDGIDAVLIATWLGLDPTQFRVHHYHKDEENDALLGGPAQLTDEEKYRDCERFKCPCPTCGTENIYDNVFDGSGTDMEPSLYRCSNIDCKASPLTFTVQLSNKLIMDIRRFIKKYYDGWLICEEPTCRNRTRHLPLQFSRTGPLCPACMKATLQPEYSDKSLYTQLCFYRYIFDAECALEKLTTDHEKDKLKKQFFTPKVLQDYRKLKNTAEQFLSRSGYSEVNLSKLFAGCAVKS
Excerpt: as §1

T2 sequence (P03156 whole entry): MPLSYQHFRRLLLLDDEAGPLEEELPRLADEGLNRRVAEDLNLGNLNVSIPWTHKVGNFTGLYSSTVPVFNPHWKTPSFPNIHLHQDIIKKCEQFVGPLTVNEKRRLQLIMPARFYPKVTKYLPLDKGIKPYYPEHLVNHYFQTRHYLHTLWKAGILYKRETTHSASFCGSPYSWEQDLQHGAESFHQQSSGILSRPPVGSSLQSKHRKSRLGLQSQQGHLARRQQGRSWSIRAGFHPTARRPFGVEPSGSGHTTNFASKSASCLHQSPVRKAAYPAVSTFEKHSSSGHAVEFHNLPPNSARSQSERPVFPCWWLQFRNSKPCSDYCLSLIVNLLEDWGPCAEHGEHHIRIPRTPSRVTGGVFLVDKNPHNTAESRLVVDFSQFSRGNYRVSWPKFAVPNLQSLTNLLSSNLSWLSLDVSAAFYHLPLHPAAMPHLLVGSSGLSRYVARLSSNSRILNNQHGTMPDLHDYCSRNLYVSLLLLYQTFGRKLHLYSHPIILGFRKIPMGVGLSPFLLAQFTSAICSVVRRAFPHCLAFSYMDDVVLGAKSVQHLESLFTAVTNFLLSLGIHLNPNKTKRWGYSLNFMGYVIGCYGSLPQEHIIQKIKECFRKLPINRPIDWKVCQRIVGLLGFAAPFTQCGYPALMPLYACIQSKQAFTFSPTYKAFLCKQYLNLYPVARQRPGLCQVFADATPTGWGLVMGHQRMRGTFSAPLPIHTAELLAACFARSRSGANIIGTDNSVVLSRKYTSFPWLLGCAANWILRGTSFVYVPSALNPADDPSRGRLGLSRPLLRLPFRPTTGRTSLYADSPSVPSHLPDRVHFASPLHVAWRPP

SMILES	CD₅₀ (MT4 Zellen; human, 48 h) [µM]	CD₅₀ (MT4 Zellen) [µM]	IC50 (DNA-Polymerase-beta) [µM]	IC50 (HBV-Polymerase) [µM]	IC50 (DNA-Polymerase-alpha) [µM]
Cc1cn([C@H]2C=C[C@@H](CO)O2)c(=O)nc1N [2′,3′-Didehydro-2′,3′-didesoxy-5-methylcytidin]	205				
Nc1nc2c(ncn2[C@H]2C=C[C@@H](CO)O2)c(=O)[nH]1 [2′,3′-Didehydro-2′,3′-didesoxyguanosin]	155				
Nc1nc2c(ncn2[C@H]2C[C@H](N)[C@@H](CO)O2)c(=O)[nH]1 [2′,3′-Didesoxy-3′-aminoguanosin]	210				
Cc1cn([C@H]2C[C@H](N=[N+]=[N-])[C@@H](CO)O2)c(=O)nc1N [2′,3′-Didesoxy-3′-azido-5-methylcytidin]	> 500				
Nc1nc2c(ncn2[C@H]2C[C@H](F)[C@@H](CO)O2)c(=O)[nH]1 [2′,3′-Didesoxy-3′-fluorguanosin]		250			
Cc1cn([C@H]2CC[C@@H](CO)O2)c(=O)nc1N [2′,3′-Didesoxy-5-methylcytidin]	110				
Cc1cn([C@H]2C[C@H](Cl)[C@@H](COP(=O)(O)OP(=O)(O)OP(=O)(O)O)O2)c(=O)nc1N [ClMetdCTP, 2′,3′-Didesoxy-3′chlor-5-methylcytidin-5′-triphosphat]			100	9	> 200
CCc1cn([C@H]2C[C@H](F)[C@@H](COP(=O)(O)OP(=O)(O)OP(=O)(O)O)O2)c(=O)nc1N [FEtdCTP, 2′,3′-Didesoxy-3′-fluor-5-ethylcytidin-5′-triphosphat]			3	0.35	> 200
Cc1cn([C@H]2C[C@H](F)[C@@H](COP(=O)(O)OP(=O)(O)OP(=O)(O)O)O2)c(=O)nc1N [FMetdCTP, 2′,3′-Didesoxy-3′-fluor-5-methylcytidin-5′-triphosphat]			1	0.03	> 200
Nc1nc2c(ncn2[C@H]2C[C@H](F)[C@@H](COP(=O)(O)OP(=O)(O)OP(=O)(O)O)O2)c(=O)[nH]1 [FdGTP, 2′,3′-Didesoxy-3′-fluorguanosin-5′-triphosphat]			1.8	0.15	> 200
Cc1cn([C@H]2C[C@H](N)[C@@H](COP(=O)(O)OP(=O)(O)OP(=O)(O)O)O2)c(=O)nc1N [NH₂MetdCTP, 2′,3′-Didesoxy-3′-amino-5-methylcytidin-5′-triphosphat]			> 200	26	> 200
Cc1cn([C@H]2C[C@H](N=[N+]=[N-])[C@@H](COP(=O)(O)OP(=O)(O)OP(=O)(O)O)O2)c(=O)nc1N [N₃MetdCTP, 2′,3′-Didesoxy-3′-azido-5-methylcytidin-5′-triphosphat]			> 200	0.12	> 200
Cc1cn([C@H]2CC[C@@H](COP(=O)(O)OP(=O)(O)OP(=O)(O)O)O2)c(=O)nc1N [ddMetCTP, 2′,3′-Didesoxy-5-methylcytidin-5′-triphosphat]			> 100	8	> 200
Nc1ncnc2c1ncn2[C@H]1C=C[C@@H](COP(=O)(O)OP(=O)(O)OP(=O)(O)O)O1 [ddeATP, 2′,3′-Didehydro-2′,3′-didesoxyadenosin-5′-triphosphat]			4.5	1.8	> 100
Nc1ccn([C@H]2C=C[C@@H](COP(=O)(O)OP(=O)(O)OP(=O)(O)O)O2)c(=O)n1 [ddeCTP, 2′,3′-Didehydro-2′,3′-didesoxycytidin-5′-triphosphat]			6	2.5	> 200
Nc1nc2c(ncn2[C@H]2C=C[C@@H](COP(=O)(O)OP(=O)(O)OP(=O)(O)O)O2)c(=O)[nH]1 [ddeGTP, 2′,3′-Didehydro-2′,3′-didesoxyguanosin-5′-triphosphat]			5	1.6	> 150
Cc1cn([C@H]2C=C[C@@H](COP(=O)(O)OP(=O)(O)OP(=O)(O)O)O2)c(=O)nc1N [ddeMetCTP, 2′,3′-Didehydro-2′,3′-didesoxy-5-methylcytidin-5′-triphosphat]			10	0.28	> 200
